The source of these data is ChEMBL document CHEMBL5380864, “Novel Synthesis of C-Methylated Phytocannabinoids Bearing Anti-inflammatory Properties” (J Med Chem, 2023).

For experiment [1], the system named is Mus musculus. Kind of experiment: Anti- inflammatory activity against C57BL/6 mouse model of LPS-induced peritonitis assessed as reduction in plasma IL-6 level at 5 mg/kg, ip pre-administered for 60 mins followed by LPS-stimulation and measured after 90 mins by ELISA analysis. As to conditions: time 150.0 min. The class given is functional, organism-based.

Experiment [2] concerns Mus musculus. Kind of experiment: Anti-inflammatory activity against zymosan A-induced Sabra mouse model assessed as reduction in TNF-alpha level at 10 to 25 mg/kg, ip measured after 24 hrs by ELISA analysis. The class given is functional, organism-based. Particulars: dose 10-25 mg/kg. (In an ELISA, binding on a coated surface is turned into a signal by an enzyme label.)
The test system of experiment [3] is Mus musculus. Briefly: Anti- inflammatory activity against C57BL/6 mouse model of LPS-induced peritonitis assessed as reduction in plasma IL-1beta level at 5 mg/kg, ip pre-administered for 60 mins followed by LPS-stimulation and measured after 90 mins by ELISA analysis. Particulars: time 150.0 min. The class given is functional, organism-based.
The test system of experiment [4] is Mus musculus. Briefly: Anti-inflammatory activity against zymosan A-induced Sabra mouse model assessed as reduction in paw swelling at 10 to 25 mg/kg, ip measured after 6 hrs. The class given is functional, organism-based. Particulars: dose 10-25 mg/kg.
Experiment [5] relates to BMDM. Briefly: Inhibition of IL-1beta mRNA expression in LPS-stimulated human bone-marrow derived macrophage cells at 5 uM preincubated with compound for 3 hrs followed by LPS stimulation for 3 hrs and measured 30 mins after ATP addition by qRT-PCR analysis. The class given is functional, cell-based. Particulars: time 6.5 hrs. (In qPCR the cycle at which signal appears reflects the starting amount.)

Experiment [6] has as its system BMDM. Kind of experiment: Inhibition of IL-1beta protein expression in LPS-stimulated human bone-marrow derived macrophage cells at 5 uM preincubated with compound for 3 hrs followed by LPS stimulation for 3 hrs and measured 30 mins after ATP addition by ELISA analysis. The format is functional, cell-based. As to conditions: time 6.5 hrs.
The test system of experiment [7] is Mus musculus. Kind of experiment: Anti-inflammatory activity against zymosan A-induced Sabra mouse model assessed as reduction in pain sensation at 10 to 25 mg/kg, ip measured after 6 hrs. The format is functional, organism-based. Particulars: dose 10-25 mg/kg.
In experiment [8] the test system is Mus musculus. Kind of experiment: Anti- inflammatory activity against C57BL/6 mouse model of LPS-induced peritonitis assessed as reduction in plasma TNF alpha level at 5 mg/kg, ip pre-administered for 60 mins followed by LPS-stimulation and measured after 90 mins by ELISA analysis. The format is functional, organism-based. As to conditions: time 150.0 min.
The subject of experiment [9] is Mus musculus. Briefly: Anti- inflammatory activity against C57BL/6 mouse model of LPS-induced peritonitis assessed as reduction in plasma IL-1beta level at 10 mg/kg, ip pre-administered for 60 mins followed by LPS-stimulation and measured after 90 mins by ELISA analysis. The class given is functional, organism-based. Particulars: time 150.0 min.
Experiment [10] deals with Mus musculus. Briefly: Anti- inflammatory activity against C57BL/6 mouse model of LPS-induced peritonitis assessed as reduction in plasma IL-6 level at 10 mg/kg, ip pre-administered for 60 mins followed by LPS-stimulation and measured after 90 mins by ELISA analysis. The format is functional, organism-based. Particulars: time 150.0 min.
For experiment [11], the system named is Mus musculus. Briefly: Anti- inflammatory activity against C57BL/6 mouse model of LPS-induced peritonitis assessed as reduction in plasma TNF alpha level at 10 mg/kg, ip pre-administered for 60 mins followed by LPS-stimulation and measured after 90 mins by ELISA analysis. Particulars: time 150.0 min. The format is functional, organism-based.
The test system of experiment [12] is Mus musculus. Kind of experiment: Anti-inflammatory activity against zymosan A-induced Sabra mouse model assessed as reduction in paw swelling at 5 to 50 mg/kg, ip measured after 6 hrs. The format is functional, organism-based. As to conditions: dose 5-50 mg/kg.
The test system of experiment [13] is Mus musculus. Kind of experiment: Anti-inflammatory activity against zymosan A-induced Sabra mouse model assessed as reduction in TNF-alpha level at 5 to 50 mg/kg, ip measured after 24 hrs by ELSA analysis. Particulars: dose 5-50 mg/kg. The format is functional, organism-based.
For experiment [14], the system named is Mus musculus. Briefly: Anti-inflammatory activity against zymosan A-induced Sabra mouse model assessed as reduction in pain sensation at 5 to 50 mg/kg, ip measured after 6 hrs. Particulars: dose 5-50 mg/kg. The format is functional, organism-based.
For experiment [15], the system named is Mus musculus. Briefly: Anti-inflammatory activity against zymosan A-induced Sabra mouse model assessed as reduction in pain sensation administered intraperitoneally and measured after 6 hrs. The format is functional, organism-based. Particulars: dose 5-50 mg/kg, route ip.
Experiment [16] deals with Mus musculus. Briefly: Anti-inflammatory activity against zymosan A-induced Sabra mouse model assessed as reduction in […] at 5 to 25 mg/kg, ip measured after 6 hrs. The class given is functional, organism-based. Particulars: dose 5-25 mg/kg.
Experiment [17] has as its system Mus musculus. Kind of experiment: Anti-inflammatory activity against zymosan A-induced Sabra mouse model assessed as reduction in paw swelling at 5 to 25 mg/kg, ip measured after 6 hrs. The class given is functional, organism-based. Particulars: dose 5-25 mg/kg.
Experiment [18] concerns Mus musculus. Briefly: Anti-inflammatory activity against zymosan A-induced Sabra mouse model assessed as reduction in TNF-alpha level administered intraperitoneally and measured after 24 hrs by ELISA analysis. The class given is functional, organism-based. As to conditions: route ip.
Experiment [19] relates to Mus musculus. Briefly: Anti-inflammatory activity against zymosan A-induced Sabra mouse model assessed as reduction in TNF-alpha level at 5 to 25 mg/kg, ip measured after 24 hrs by ELISA analysis. The format is functional, organism-based. As to conditions: dose 5-25 mg/kg.

SMILES strings stand for the structures. Calls of active or inactive are those of the source. The rule behind the calls is not given here.

Turning to `CCCCCc1cc(O)c([C@@H]2C=C(C)CC[C@H]2C(C)C)c(O)c1C`, the outcome in the experiment with Mus musculus [1] was inactive. Further, the result in the experiment on Mus musculus [2], with Mus musculus [3], with Mus musculus [4], in the experiment with Mus musculus [7] and with Mus musculus [8] was Active. In addition, the inhibition result with BMDM [5] and with BMDM [6] was “Active” each time.
Take `C=C(C)[C@@H]1CCC(C)=C[C@H]1c1c(OC)cc(CCCCC)c(C)c1OC`: the result in the experiment with Mus musculus [2], in the experiment with Mus musculus [4], with Mus musculus [7] and in the experiment with Mus musculus [11] was Active. Also, the outcome with Mus musculus [9] and in the experiment with Mus musculus [10] was inactive.
For the molecule `C=C(C)[C@@H]1CCC(C)=C[C@H]1c1c(O)cc(CCCCC)c(C)c1O`, the outcome with Mus musculus [12], with Mus musculus [13] and with Mus musculus [14] was Active.
As to `C=C(C)[C@@H]1CCC(C)=C[C@H]1c1c(O)c(C)c(CCCCC)c(C)c1O`, the result in the experiment with Mus musculus [12] and in the experiment with Mus musculus [13] was Active. Besides, the Activity result in the experiment on Mus musculus [15] was “Dose-Dependent Effect”.
As for `CCCCCc1cc(OC)c(C/C=C(\C)CCC=C(C)C)c(OC)c1C`, the result with Mus musculus [12], in the experiment on Mus musculus [13] and in the experiment on Mus musculus [14] was Active.
In the case of `C=C(C)[C@@H]1CCC(C)=C[C@H]1c1c(O)cc(O)c(C)c1CCCCC`, the result in the experiment on Mus musculus [16] and in the experiment on Mus musculus [17] was Active. Further, the Activity result with Mus musculus [18] was “Dose-Dependent Effect”.
For `CCCCCc1cc(O)c(C/C=C(\C)CCC=C(C)C)c(O)c1C`, the result in the experiment on Mus musculus [1] and in the experiment on Mus musculus [8] was inactive. The result in the experiment with Mus musculus [3], in the experiment with Mus musculus [16], with Mus musculus [19] and in the experiment with Mus musculus [17] was Active.
